In PubChem BioAssay (NCI) one finds TGI and GI50 data, which are given here for 12 compounds.

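Cultured in 96-well plates, cells were exposed to test compound for 48 hours across five concentrations. At the GI50, growth is halved. Definition used: TGI = concentration required for complete inhibition of growth.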 Bounds are passed on as bounds.

Among the test systems are OVCAR-3 ovarian; SK-OV-3 ovarian; SK-MEL-2 melanoma; SW-620 colon; PC-3 prostate; NCI-H460 lung; RXF 393 renal; MALME-3M melanoma; HCT-116 colon; IGROV1 ovarian.
Common to all, as to experiment: DTP human tumour cell line panel, 48 h

For `O=C1OC(=O)C(=C\c2ccc3c(c2)OCO3)/C1=C/c1ccc2c(c1)OCO2`, the concentration for total growth inhibition (TGI) in the assay with OVCAR-3 ovarian, in the assay with SK-OV-3 ovarian, with SK-MEL-2 melanoma, in the assay with SW-620 colon, with PC-3 prostate and in the assay with NCI-H460 lung was more than 100 µM throughout. Besides, the concentration for total growth inhibition (TGI) in the assay on RXF 393 renal, in the assay with MALME-3M melanoma, in the assay with HCT-116 colon and in the assay on IGROV1 ovarian was more than 100 µM each time.
With `O=C(/C=C/c1ccccc1)CCN1CCOCC1`, the TGI (in general, the concentration at which net growth stops) amounted to 33.3 µM with OVCAR-3 ovarian; 51.6 µM in the assay with SK-OV-3 ovarian; 44.5 µM with SK-MEL-2 melanoma; 16.5 µM with SW-620 colon; 31.5 µM in the assay with PC-3 prostate; 35.8 µM in the assay with NCI-H460 lung. The TGI in the assay on RXF 393 renal stood at 26.1 µM; in the assay with MALME-3M melanoma it was 36.4 µM; in the assay on HCT-116 colon, 28 µM; with IGROV1 ovarian, 27.1 µM.
For `CNCCCNCCCCNCCCN1C(=O)c2ccc3c4c(ccc(c24)C1=O)C(=O)N(CCCNCc1ccccc1OC)C3=O`, the GI50 (usually the concentration at which growth is held to half of that of the control) in the assay with OVCAR-3 ovarian was 2.93 µM; in the assay on SK-OV-3 ovarian, 6.19 µM; in the assay with SK-MEL-2 melanoma, 4.46 µM; in the assay on SW-620 colon it was 2.16 µM; in the assay on PC-3 prostate, 7.45 µM; in the assay with NCI-H460 lung, 2.53 µM. The GI50 in the assay with RXF 393 renal was 3.82 µM; in the assay with MALME-3M melanoma, 0.939 µM; with HCT-116 colon it was 2.04 µM; in the assay on IGROV1 ovarian it was 3.02 µM. The TGI with OVCAR-3 ovarian was 11.3 µM; in the assay with SK-OV-3 ovarian it was 61.5 µM; in the assay with SK-MEL-2 melanoma, 18.8 µM; with SW-620 colon it was 15.8 µM; in the assay with PC-3 prostate, 44.4 µM; in the assay on NCI-H460 lung it was 12.1 µM. Moreover, the TGI came out at 19.3 µM in the assay with RXF 393 renal, 3.05 µM with MALME-3M melanoma, 21.1 µM in the assay with HCT-116 colon and 19 µM with IGROV1 ovarian.
Turning to `COc1cc2c(cc1OCCCn1c(-c3ccccn3)nc3ccccc31)N=C[C@@H]1CCCN1C2=O`, the GI50 with OVCAR-3 ovarian was 2.18 µM; in the assay with SK-OV-3 ovarian, 4.23 µM; with SK-MEL-2 melanoma, 1.52 µM; in the assay on SW-620 colon, 2.47 µM; in the assay with PC-3 prostate it was 1.44 µM; in the assay on NCI-H460 lung, 1.88 µM. The GI50 was 0.571 µM in the assay with RXF 393 renal, 5.32 µM in the assay on MALME-3M melanoma, 1.35 µM with HCT-116 colon and 1.96 µM in the assay with IGROV1 ovarian. In addition, the TGI in the assay with OVCAR-3 ovarian is 5.11 µM; with SK-OV-3 ovarian, 19.6 µM; with SK-MEL-2 melanoma it was 3.94 µM; with SW-620 colon, 8.33 µM; in the assay with PC-3 prostate it was more than 30.6 µM; with NCI-H460 lung it was 4.34 µM. Further, the TGI was determined as 3.64 µM in the assay with RXF 393 renal, 11 µM in the assay with MALME-3M melanoma, 7.56 µM with HCT-116 colon and 4.89 µM with IGROV1 ovarian.
Regarding `O=C1OCC2=C1C(c1ccc(Cl)c(Cl)c1)c1cc3c(cc1N2CCO)OCCO3` (stereo not given), the 50% growth inhibitory concentration (GI50) in the assay on OVCAR-3 ovarian was 0.127 µM; in the assay with SK-OV-3 ovarian, 0.215 µM; in the assay with SK-MEL-2 melanoma, 0.137 µM; with SW-620 colon it was 0.16 µM; with PC-3 prostate, 0.189 µM; in the assay with NCI-H460 lung, 0.192 µM. Moreover, the 50% growth inhibitory concentration (GI50) was 0.116 µM with RXF 393 renal, 0.249 µM with MALME-3M melanoma, 0.213 µM in the assay with HCT-116 colon and 0.542 µM with IGROV1 ovarian. For the same compound, the concentration for total growth inhibition (TGI) is 0.351 µM with OVCAR-3 ovarian; 2.32 µM in the assay with SK-OV-3 ovarian; 1.11 µM in the assay with SK-MEL-2 melanoma; more than 50 µM with SW-620 colon; 8.66 µM in the assay on PC-3 prostate; 5.77 µM in the assay with NCI-H460 lung. In addition, the TGI is 0.751 µM in the assay on RXF 393 renal, 25.8 µM with MALME-3M melanoma, 8.78 µM in the assay on HCT-116 colon and more than 33 µM in the assay with IGROV1 ovarian.
Consider `O=C(/C=C\c1cccc([N+](=O)[O-])c1)/C=C/c1cccc([N+](=O)[O-])c1`, for which the GI50 in the assay on OVCAR-3 ovarian was 2.18 µM; with SK-OV-3 ovarian, 20 µM; with SK-MEL-2 melanoma it was 19.5 µM; in the assay with SW-620 colon, 1.9 µM; with PC-3 prostate, 3.17 µM; with NCI-H460 lung, 6.61 µM. Further, the GI50 with RXF 393 renal is 2.55 µM; in the assay with MALME-3M melanoma, 37.9 µM; in the assay on HCT-116 colon, 0.2 µM; in the assay with IGROV1 ovarian, 2.44 µM. For the same compound, the total growth inhibition concentration (TGI) was 4.32 µM in the assay with OVCAR-3 ovarian; more than 100 µM in the assay on SK-OV-3 ovarian; 49.4 µM with SK-MEL-2 melanoma; 4.53 µM in the assay on SW-620 colon; more than 100 µM with PC-3 prostate; more than 100 µM in the assay with NCI-H460 lung. Besides, the TGI in the assay on RXF 393 renal was 6.57 µM; with MALME-3M melanoma, more than 100 µM; with HCT-116 colon it was 0.407 µM; with IGROV1 ovarian it was 6.3 µM.
For the compound `COc1cc2c(c(OC)c1OC)-c1ccc(SC)c(=O)cc1C(NC(=O)c1ccccc1)CC2` (stereo not given), the TGI in the assay with OVCAR-3 ovarian is less than 0.01 µM; in the assay on SK-OV-3 ovarian, 1.94 µM; with SK-MEL-2 melanoma, less than 0.215 µM; in the assay with SW-620 colon, 34.7 µM; in the assay on PC-3 prostate, more than 31.6 µM; in the assay with NCI-H460 lung, 1.62 µM. Further, the TGI in the assay with RXF 393 renal was 7.88 µM; with MALME-3M melanoma, 32.7 µM; in the assay on HCT-116 colon, 0.188 µM; in the assay with IGROV1 ovarian it was 49.6 µM.
As to `O=C1c2c(c3c4ccccc4[nH]c3c3ccc4ccccc4c23)C(=O)N1CCN1CCNCC1`, the GI50 was 1.83 µM in the assay on OVCAR-3 ovarian; 1.86 µM in the assay with SK-OV-3 ovarian; 2.03 µM with SK-MEL-2 melanoma; 1.49 µM with SW-620 colon; 1.68 µM with PC-3 prostate; 1.1 µM in the assay on NCI-H460 lung. Besides, the GI50 was 1.76 µM with RXF 393 renal, 1.57 µM in the assay on MALME-3M melanoma, 1.59 µM in the assay with HCT-116 colon and 1.46 µM with IGROV1 ovarian. The TGI in the assay with OVCAR-3 ovarian was determined as 3.48 µM; in the assay with SK-OV-3 ovarian it was 3.58 µM; with SK-MEL-2 melanoma, 4.7 µM; with SW-620 colon, 3.16 µM; in the assay with PC-3 prostate, 3.67 µM; in the assay with NCI-H460 lung, 2.6 µM. In addition, the TGI with RXF 393 renal was 3.39 µM; in the assay on MALME-3M melanoma it was 3.18 µM; in the assay with HCT-116 colon, 3.06 µM; in the assay on IGROV1 ovarian it was 2.84 µM.
On to `O=C1CCC(N2Cc3cc(CNC(=O)C(F)(F)c4ccc(Cl)cc4)ccc3C2=O)C(=O)N1` (stereo not given), for which the GI50 in the assay on OVCAR-3 ovarian is more than 100 µM; in the assay with SK-OV-3 ovarian it was more than 100 µM; in the assay on SK-MEL-2 melanoma, more than 100 µM; in the assay on SW-620 colon, 0.11 µM; with PC-3 prostate, 4.71 µM; in the assay on NCI-H460 lung, more than 100 µM. The GI50 in the assay on RXF 393 renal was 19 µM; in the assay with MALME-3M melanoma, 0.105 µM; in the assay on HCT-116 colon, more than 100 µM; in the assay on IGROV1 ovarian, 1.78 µM. Also, the TGI with OVCAR-3 ovarian, in the assay on SK-OV-3 ovarian, in the assay on SK-MEL-2 melanoma, in the assay on SW-620 colon, in the assay with PC-3 prostate and in the assay on NCI-H460 lung was more than 100 µM throughout. Further, the TGI was more than 100 µM in the assay on RXF 393 renal, more than 27.9 µM in the assay with MALME-3M melanoma, more than 100 µM in the assay with HCT-116 colon and more than 100 µM in the assay on IGROV1 ovarian.
In the case of `CC(C)NCCCn1c(Sc2cc3c(cc2I)OCO3)nc2c(N)ncnc21`, the GI50 was 0.585 µM with OVCAR-3 ovarian; 0.0451 µM in the assay on SK-OV-3 ovarian; 0.357 µM in the assay on SK-MEL-2 melanoma; 0.0592 µM with SW-620 colon; 0.133 µM in the assay with PC-3 prostate; 0.0576 µM in the assay with NCI-H460 lung. The GI50 with RXF 393 renal is 0.753 µM; in the assay with MALME-3M melanoma it was 0.124 µM; in the assay on HCT-116 colon, 0.0628 µM; in the assay with IGROV1 ovarian, 0.0885 µM. In addition, the concentration for total growth inhibition (TGI) with OVCAR-3 ovarian was more than 100 µM; with SK-OV-3 ovarian, more than 100 µM; with SK-MEL-2 melanoma, more than 83.2 µM; in the assay with SW-620 colon, more than 100 µM; with PC-3 prostate, more than 100 µM; with NCI-H460 lung, more than 100 µM. For the same compound, the TGI in the assay on RXF 393 renal is 48.8 µM; in the assay with MALME-3M melanoma, 2.12 µM; with HCT-116 colon, more than 100 µM; in the assay with IGROV1 ovarian, 3.52 µM.
With `Cc1ccc(/C=N\NC(=O)c2[nH]c3ccc(F)cc3c2-c2ccccc2)cc1`, the GI50 is 0.0261 µM in the assay on OVCAR-3 ovarian; 0.0307 µM with SK-OV-3 ovarian; 0.0488 µM with SK-MEL-2 melanoma; 0.0428 µM with SW-620 colon; 0.0345 µM in the assay with PC-3 prostate; 0.0345 µM in the assay with NCI-H460 lung. Further, the concentration for 50% growth inhibition (GI50) with RXF 393 renal is 0.0305 µM; with MALME-3M melanoma, 0.0572 µM; in the assay with HCT-116 colon, 0.027 µM; with IGROV1 ovarian, 0.0336 µM. The TGI is 0.0782 µM in the assay with OVCAR-3 ovarian; 2.19 µM with SK-OV-3 ovarian; 24.5 µM with SK-MEL-2 melanoma; more than 100 µM with SW-620 colon; 20.6 µM in the assay with PC-3 prostate; more than 37.9 µM with NCI-H460 lung. Also, the TGI in the assay with RXF 393 renal is 1.49 µM; in the assay on MALME-3M melanoma, more than 80.9 µM; in the assay with HCT-116 colon, 0.855 µM; with IGROV1 ovarian it was 10.7 µM.
`O=C(Nc1ccc(OCc2nnc(-c3ccc(Cl)cc3)o2)c(F)c1)Nc1ccc(Cl)c(C(F)(F)F)c1`: the GI50 in the assay with OVCAR-3 ovarian was 1.7 µM; with SK-OV-3 ovarian it was 3.3 µM; in the assay with SK-MEL-2 melanoma, 3.17 µM; in the assay with SW-620 colon it was 2.9 µM; in the assay on PC-3 prostate it was 1.84 µM; with NCI-H460 lung it was 1.85 µM. For the same compound, the GI50 is 2.6 µM in the assay with RXF 393 renal, 2.4 µM with MALME-3M melanoma, 1.8 µM in the assay on HCT-116 colon and 2.9 µM in the assay with IGROV1 ovarian. Besides, the TGI came out at 5.01 µM in the assay with OVCAR-3 ovarian; 12.5 µM with SK-OV-3 ovarian; 9.48 µM with SK-MEL-2 melanoma; 11 µM in the assay with SW-620 colon; 7.87 µM with PC-3 prostate; 4.86 µM with NCI-H460 lung. The total growth inhibition concentration (TGI) in the assay on RXF 393 renal came to 7.76 µM; in the assay on MALME-3M melanoma, 6.33 µM; in the assay on HCT-116 colon, 6.16 µM; with IGROV1 ovarian, 10.5 µM.
